Assay results from paper doi:10.1101/2023.11.24.568596v1 (biorxiv, 2023).

Key:
Settings in all cases: binder
AurA = target: T1, AurA (Homo sapiens, UniProt O14965)
T1 sequence (O14965 1-403): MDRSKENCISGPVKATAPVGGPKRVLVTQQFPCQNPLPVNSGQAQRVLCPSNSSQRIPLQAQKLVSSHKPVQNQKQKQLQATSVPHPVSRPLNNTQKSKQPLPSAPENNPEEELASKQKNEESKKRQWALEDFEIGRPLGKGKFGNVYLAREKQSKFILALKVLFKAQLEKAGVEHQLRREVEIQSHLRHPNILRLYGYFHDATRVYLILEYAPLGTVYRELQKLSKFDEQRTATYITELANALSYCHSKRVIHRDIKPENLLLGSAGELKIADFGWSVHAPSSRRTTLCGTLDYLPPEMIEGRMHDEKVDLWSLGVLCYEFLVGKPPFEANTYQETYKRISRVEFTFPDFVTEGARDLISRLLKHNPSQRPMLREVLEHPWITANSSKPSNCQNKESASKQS

CK1d = CK1d (Homo sapiens, UniProt P48730)
CK1d, sequence (P48730 whole entry): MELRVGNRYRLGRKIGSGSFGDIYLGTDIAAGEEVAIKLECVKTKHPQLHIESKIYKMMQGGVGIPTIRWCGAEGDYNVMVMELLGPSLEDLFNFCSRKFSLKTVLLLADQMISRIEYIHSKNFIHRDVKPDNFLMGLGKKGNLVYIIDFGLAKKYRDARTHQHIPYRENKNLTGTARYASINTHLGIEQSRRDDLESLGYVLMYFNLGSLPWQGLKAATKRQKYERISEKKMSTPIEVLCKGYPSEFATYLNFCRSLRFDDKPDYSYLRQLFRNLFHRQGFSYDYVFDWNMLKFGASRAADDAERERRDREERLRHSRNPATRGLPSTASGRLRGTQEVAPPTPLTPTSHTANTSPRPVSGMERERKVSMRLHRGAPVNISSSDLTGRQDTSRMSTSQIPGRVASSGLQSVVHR

CK2a2 = CK2a2 (Homo sapiens, UniProt P19784)
CK2a2, sequence (P19784 whole entry): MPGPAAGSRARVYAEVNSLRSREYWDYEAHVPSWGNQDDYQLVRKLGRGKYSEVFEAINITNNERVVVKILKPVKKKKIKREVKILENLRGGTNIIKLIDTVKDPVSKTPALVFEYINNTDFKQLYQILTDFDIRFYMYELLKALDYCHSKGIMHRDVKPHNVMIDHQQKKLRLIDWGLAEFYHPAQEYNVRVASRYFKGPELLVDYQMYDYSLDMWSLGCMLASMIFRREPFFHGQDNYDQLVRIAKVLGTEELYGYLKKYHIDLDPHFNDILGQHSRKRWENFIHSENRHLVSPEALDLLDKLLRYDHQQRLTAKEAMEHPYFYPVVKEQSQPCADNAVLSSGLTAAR

CaMK1d = CaMK1d (Homo sapiens, UniProt Q8IU85)
CaMK1d, sequence (Q8IU85 whole entry): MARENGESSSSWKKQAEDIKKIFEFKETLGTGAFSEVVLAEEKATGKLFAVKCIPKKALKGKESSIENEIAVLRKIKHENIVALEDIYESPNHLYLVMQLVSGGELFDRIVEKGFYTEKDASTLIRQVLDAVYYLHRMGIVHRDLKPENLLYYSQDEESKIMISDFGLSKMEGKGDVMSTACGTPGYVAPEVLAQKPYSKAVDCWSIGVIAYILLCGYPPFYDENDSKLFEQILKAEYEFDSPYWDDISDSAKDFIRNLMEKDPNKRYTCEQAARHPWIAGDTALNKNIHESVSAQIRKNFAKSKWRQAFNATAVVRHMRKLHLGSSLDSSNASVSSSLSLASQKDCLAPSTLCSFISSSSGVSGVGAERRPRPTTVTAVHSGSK

DYRK1A = DYRK1A (Homo sapiens, UniProt Q13627)
EphA2 = EphA2 (Homo sapiens, UniProt P29317)
EphA2, sequence (P29317 whole entry): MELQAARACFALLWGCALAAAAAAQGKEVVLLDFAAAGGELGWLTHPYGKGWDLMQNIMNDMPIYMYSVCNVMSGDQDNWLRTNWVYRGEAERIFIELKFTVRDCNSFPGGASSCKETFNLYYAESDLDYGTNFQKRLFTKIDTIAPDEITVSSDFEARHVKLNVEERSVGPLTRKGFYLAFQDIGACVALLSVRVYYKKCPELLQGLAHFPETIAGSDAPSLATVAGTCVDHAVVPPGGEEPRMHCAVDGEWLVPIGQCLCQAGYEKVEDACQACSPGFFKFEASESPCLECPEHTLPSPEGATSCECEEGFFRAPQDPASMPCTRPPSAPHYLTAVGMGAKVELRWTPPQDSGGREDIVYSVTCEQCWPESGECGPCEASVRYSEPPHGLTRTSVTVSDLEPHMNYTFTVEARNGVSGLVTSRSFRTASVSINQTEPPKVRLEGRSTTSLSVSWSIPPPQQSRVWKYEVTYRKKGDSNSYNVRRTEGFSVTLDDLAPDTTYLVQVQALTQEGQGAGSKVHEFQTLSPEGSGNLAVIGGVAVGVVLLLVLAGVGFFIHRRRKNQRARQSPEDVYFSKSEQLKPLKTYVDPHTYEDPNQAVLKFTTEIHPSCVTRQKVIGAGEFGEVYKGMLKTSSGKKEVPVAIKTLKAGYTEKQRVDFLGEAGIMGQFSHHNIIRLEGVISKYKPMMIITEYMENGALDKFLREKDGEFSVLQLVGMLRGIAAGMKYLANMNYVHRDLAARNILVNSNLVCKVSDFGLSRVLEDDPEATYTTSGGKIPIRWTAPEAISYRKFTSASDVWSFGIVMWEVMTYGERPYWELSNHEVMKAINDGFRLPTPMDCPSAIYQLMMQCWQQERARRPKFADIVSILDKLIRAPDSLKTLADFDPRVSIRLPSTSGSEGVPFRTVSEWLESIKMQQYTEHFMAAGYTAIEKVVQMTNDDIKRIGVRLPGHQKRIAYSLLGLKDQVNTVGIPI

FLT1 = FLT1 (Homo sapiens, UniProt P17948)
FLT1, sequence (P17948 whole entry): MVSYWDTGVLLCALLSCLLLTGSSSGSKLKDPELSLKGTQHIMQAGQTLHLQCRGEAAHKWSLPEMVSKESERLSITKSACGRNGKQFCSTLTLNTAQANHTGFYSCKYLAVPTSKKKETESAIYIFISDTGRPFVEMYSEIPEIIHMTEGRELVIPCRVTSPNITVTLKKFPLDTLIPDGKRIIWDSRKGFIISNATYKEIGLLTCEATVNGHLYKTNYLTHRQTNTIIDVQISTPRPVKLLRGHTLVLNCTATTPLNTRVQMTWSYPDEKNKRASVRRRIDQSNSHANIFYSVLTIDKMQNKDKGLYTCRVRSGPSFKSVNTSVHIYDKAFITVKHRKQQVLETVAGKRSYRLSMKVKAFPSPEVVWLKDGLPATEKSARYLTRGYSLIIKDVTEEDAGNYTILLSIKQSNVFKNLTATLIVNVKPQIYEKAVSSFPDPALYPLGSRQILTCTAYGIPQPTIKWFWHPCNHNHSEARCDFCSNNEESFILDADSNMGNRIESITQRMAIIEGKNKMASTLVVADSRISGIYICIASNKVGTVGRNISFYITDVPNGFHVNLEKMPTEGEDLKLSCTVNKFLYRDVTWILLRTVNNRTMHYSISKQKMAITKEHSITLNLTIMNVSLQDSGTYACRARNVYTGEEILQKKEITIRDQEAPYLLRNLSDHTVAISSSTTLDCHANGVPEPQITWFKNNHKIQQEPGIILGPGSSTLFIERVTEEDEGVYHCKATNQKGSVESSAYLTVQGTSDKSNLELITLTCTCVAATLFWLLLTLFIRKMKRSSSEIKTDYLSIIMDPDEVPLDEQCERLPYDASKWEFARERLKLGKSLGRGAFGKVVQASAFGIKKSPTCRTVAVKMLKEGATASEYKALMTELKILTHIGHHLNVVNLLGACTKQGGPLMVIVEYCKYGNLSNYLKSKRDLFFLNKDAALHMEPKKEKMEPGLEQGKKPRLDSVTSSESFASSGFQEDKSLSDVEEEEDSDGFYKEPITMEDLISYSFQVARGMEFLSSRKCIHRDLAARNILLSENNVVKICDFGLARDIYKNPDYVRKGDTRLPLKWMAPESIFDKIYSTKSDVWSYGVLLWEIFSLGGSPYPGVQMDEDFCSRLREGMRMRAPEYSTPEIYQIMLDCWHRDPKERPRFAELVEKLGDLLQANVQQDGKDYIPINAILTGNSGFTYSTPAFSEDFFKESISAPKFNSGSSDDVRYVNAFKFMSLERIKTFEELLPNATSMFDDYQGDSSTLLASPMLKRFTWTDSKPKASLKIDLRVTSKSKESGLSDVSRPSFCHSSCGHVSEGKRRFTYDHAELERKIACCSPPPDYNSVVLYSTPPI

HIPK2 = HIPK2 (Homo sapiens, UniProt Q9H2X6)
HIPK2, sequence (Q9H2X6 whole entry): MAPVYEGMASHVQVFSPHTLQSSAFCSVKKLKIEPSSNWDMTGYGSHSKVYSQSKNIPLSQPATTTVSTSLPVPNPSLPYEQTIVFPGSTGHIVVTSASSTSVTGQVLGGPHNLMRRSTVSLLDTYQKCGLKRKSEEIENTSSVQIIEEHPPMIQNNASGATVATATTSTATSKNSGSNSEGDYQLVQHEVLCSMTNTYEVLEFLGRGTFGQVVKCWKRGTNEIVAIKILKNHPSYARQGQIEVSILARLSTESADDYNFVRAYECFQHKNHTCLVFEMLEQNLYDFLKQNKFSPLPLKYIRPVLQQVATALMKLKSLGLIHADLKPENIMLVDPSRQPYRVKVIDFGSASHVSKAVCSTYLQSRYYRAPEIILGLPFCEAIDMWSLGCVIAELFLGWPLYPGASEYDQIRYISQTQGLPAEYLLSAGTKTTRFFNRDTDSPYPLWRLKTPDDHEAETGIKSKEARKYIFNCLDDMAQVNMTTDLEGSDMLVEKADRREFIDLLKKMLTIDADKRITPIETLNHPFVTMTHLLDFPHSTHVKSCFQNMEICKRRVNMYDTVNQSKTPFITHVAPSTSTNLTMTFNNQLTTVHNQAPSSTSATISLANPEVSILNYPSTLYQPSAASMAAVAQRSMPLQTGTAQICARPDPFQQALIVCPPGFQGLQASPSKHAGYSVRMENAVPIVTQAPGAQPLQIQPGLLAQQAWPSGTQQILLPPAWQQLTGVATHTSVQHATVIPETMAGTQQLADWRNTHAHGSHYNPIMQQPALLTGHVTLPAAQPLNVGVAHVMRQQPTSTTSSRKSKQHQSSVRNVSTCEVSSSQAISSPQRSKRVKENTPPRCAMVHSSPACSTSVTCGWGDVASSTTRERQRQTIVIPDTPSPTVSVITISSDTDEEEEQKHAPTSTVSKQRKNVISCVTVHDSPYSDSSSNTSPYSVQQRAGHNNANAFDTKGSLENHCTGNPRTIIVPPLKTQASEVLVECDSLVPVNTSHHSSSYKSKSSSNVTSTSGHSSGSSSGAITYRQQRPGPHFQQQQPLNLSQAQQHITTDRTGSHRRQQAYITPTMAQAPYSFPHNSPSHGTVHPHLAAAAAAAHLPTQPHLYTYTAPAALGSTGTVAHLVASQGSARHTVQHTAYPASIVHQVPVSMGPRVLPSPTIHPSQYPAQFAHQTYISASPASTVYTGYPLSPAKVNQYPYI

MAP3K5 = target: T2, MAP3K5 (Homo sapiens, UniProt Q99683)
T2 sequence (Q99683 1-1374): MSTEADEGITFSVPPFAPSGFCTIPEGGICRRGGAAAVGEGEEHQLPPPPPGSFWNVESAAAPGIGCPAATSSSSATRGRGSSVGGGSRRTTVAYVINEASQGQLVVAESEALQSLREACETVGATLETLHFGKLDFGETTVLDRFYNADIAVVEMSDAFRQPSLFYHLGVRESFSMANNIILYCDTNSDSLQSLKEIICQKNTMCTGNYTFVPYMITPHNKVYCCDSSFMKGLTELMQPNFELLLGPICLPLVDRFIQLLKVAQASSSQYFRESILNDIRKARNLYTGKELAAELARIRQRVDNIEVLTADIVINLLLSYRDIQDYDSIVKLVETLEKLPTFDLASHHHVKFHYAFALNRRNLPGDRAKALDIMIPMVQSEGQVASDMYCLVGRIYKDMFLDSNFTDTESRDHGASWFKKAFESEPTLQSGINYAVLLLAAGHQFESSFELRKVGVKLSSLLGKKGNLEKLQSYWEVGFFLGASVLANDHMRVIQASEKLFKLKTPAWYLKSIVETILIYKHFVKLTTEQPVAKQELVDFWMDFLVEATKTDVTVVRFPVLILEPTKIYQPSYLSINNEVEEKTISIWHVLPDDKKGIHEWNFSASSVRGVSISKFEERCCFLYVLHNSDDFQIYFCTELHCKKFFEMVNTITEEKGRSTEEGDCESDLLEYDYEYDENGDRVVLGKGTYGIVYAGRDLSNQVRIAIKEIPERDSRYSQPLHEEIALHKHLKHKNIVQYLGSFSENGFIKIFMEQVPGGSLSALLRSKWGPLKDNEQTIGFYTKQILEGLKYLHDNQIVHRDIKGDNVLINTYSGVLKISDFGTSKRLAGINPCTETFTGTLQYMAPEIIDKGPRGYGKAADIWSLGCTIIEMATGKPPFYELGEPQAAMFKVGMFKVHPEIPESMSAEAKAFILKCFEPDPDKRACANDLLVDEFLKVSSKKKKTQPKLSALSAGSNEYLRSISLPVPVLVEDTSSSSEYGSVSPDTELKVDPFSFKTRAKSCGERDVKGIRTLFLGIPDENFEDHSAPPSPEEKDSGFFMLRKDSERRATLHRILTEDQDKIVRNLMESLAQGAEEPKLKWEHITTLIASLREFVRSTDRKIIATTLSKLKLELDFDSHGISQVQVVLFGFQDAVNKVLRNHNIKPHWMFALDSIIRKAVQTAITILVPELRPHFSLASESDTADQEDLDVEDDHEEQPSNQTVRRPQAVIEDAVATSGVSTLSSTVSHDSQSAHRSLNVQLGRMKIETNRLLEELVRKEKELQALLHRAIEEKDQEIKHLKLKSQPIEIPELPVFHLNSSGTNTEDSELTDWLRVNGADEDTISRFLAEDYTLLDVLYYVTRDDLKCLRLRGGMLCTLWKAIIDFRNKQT

## Cc1cccc(-c2ccc(-c3cc4cnc(Nc5ccc(F)c(CO)c5)nc4n(CCCCN)c3=O)c(Cl)c2)n1 [compound 33, 8-(4-Aminobutyl)-6-(2-chloro-4-(6-methylpyridin-2-yl)phenyl)-2-((4-fluoro-3-(hydroxymethyl)phenyl)amino)pyrido[2,3-d]pyrimidin-7(8H)-one]
AurA
  dTm 33: 2.8 °C
CK1d
  dTm 33: 2.2 °C
CK2a2
  dTm 33: -1.2 °C
CaMK1d
  dTm 33: 5.9 °C
DYRK1A
  dTm 33: -0.6 °C
EphA2
  dTm 33: 8.3 °C
FLT1
  dTm 33: 4.9 °C
HIPK2
  dTm 33: 2.0 °C
MAP3K5
  dTm 33: 14.1 °C

## COc1ccc(O)c(Nc2ncc3cc(-c4ccc(-c5cccc(C)n5)cc4Cl)c(=O)n(CCCCN)c3n2)c1 [compound 34, 8-(4-Aminobutyl)-6-(2-chloro-4-(6-methylpyridin-2-yl)phenyl)-2-((2-hydroxy-5-methoxy-phenyl)amino)pyrido[2,3-d]pyrimidin-7(8H)-one]
AurA
  dTm 34: 3.4 °C
CK1d
  dTm 34: 1.3 °C
CK2a2
  dTm 34: 0.1 °C
CaMK1d
  dTm 34: 3.9 °C
DYRK1A
  dTm 34: -1.0 °C
EphA2
  dTm 34: 3.9 °C
FLT1
  dTm 34: 3.2 °C
HIPK2
  dTm 34: 0.5 °C
MAP3K5
  dTm 34: 10.3 °C

## COc1cc(N2CCOCC2)ccc1Nc1ncc2cc(-c3ccc(-c4cccc(C)n4)cc3Cl)c(=O)n(CCCCN)c2n1 [compound 35, 8-(4-Aminobutyl)-6-(2-chloro-4-(6-methylpyridin-2-yl)phenyl)-2-((2-methoxy-4-morpholino-phenyl)amino)pyrido[2,3-d]pyrimidin-7(8H)-one]
AurA
  dTm 35: 8.6 °C
CK1d
  dTm 35: 1.8 °C
CK2a2
  dTm 35: 0.1 °C
CaMK1d
  dTm 35: 5.8 °C
DYRK1A
  dTm 35: -2.3 °C
EphA2
  dTm 35: 4.6 °C
FLT1
  dTm 35: 5.6 °C
HIPK2
  dTm 35: 0.1 °C
MAP3K5
  dTm 35: 12.2 °C

## COc1cc(N2CCN(C)CC2)ccc1Nc1ncc2cc(-c3ccc(-c4cccc(C)n4)cc3Cl)c(=O)n(CCCCN)c2n1 [compound 36, 8-(4-Aminobutyl)-6-(2-chloro-4-(6-methylpyridin-2-yl)phenyl)-2-((2-methoxy-4-(4-methylpiperazin-1-yl)phenyl)amino)pyrido[2,3-d]pyrimidin-7(8H)-one]
AurA
  dTm 36: 5.1 °C
CK1d
  dTm 36: 1.1 °C
CK2a2
  dTm 36: -0.5 °C
CaMK1d
  dTm 36: 5.6 °C
DYRK1A
  dTm 36: -0.8 °C
EphA2
  dTm 36: 2.4 °C
FLT1
  dTm 36: 4.4 °C
HIPK2
  dTm 36: 0.3 °C
MAP3K5
  dTm 36: 10.1 °C
